Data as given in ChEMBL document CHEMBL5136973, “Update on the Development of MNK Inhibitors as Therapeutic Agents” (J Med Chem, 2022).
Each block holds one compound with its values, some of them ahead of it.

Tests used:
[1] = target: T1, MAP kinase-interacting serine/threonine-protein kinase 2 (Homo sapiens, UniProt Q9HBH9); assay: Inhibition of MNK2 (unknown origin) at 123 nM
Target sequence in this assay (Q9HBH9 whole entry, looked up): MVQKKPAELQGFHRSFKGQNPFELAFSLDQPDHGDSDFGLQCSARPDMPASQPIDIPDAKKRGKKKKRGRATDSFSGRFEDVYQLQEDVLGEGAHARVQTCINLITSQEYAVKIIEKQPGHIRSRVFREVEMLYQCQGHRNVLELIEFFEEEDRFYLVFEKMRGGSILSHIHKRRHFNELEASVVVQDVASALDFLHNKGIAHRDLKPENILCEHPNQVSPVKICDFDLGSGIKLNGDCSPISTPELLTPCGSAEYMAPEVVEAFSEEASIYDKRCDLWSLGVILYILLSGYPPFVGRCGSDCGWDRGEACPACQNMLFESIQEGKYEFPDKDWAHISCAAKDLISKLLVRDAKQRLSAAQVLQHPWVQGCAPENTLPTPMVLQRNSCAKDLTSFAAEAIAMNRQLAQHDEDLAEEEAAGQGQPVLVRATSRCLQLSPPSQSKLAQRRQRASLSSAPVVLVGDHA

[2] = target: T2, MAP kinase-interacting serine/threonine-protein kinase 1 (Homo sapiens, UniProt Q9BUB5); assay: Inhibition of Mnk1 (unknown origin)
[3] = target: T1, MAP kinase-interacting serine/threonine-protein kinase 2; assay: Inhibition of Mnk2 (unknown origin)
Target sequence in this assay (Q9HBH9 whole entry): as the sequence (Q9HBH9 whole entry, looked up) above

[4] = target: T2, MAP kinase-interacting serine/threonine-protein kinase 1; assay: Inhibition of inactive form of MNK1 (unknown origin)
[5] = system: MV4-11; assay: Induction of cell cycle arrest in human MV4-11 cells assessed as increase in sub G1/G2 DNA content at 20 uM (reference value: 64%); format: functional
[6] = target: T1, MAP kinase-interacting serine/threonine-protein kinase 2; assay: Binding affinity to His-tagged Mnk2 (unknown origin) using D 202 TATKSGSTTKNR 214 as substrate by TR-FRET assay
Target sequence in this assay (Q9HBH9 whole entry): as the sequence (Q9HBH9 whole entry, looked up) above

[7] = system: MV4-11; assay: Growth inhibition of human MV4-11 cells incubated for 72 hrs by multilabel plate reader method; format: functional
[8] = Growth inhibition of human Acute myeloid leukemic cells incubated for 72 hrs by multilabel plate reader method; format: functional; conditions: Acute myeloid leukemic cell
[9] = system: MV4-11; assay: Growth inhibition of human MV4-11 cells measured after 72 hrs; format: functional
[10] = target: T2, MAP kinase-interacting serine/threonine-protein kinase 1; assay: Binding affinity to Mnk1 (unknown origin)
[11] = target: T1, MAP kinase-interacting serine/threonine-protein kinase 2; assay: Binding affinity to Mnk2 (unknown origin)
Target sequence in this assay (Q9HBH9 whole entry): as the sequence (Q9HBH9 whole entry, looked up) above

[12] = Volume of distribution at steady state in male RH:Foxn1 nude rat; format: ADME; conditions: in vivo, read-out: Vdss
[13] = Volume of distribution at steady state in female NMRI-nu/nu mouse; format: ADME; conditions: in vivo, read-out: Vdss
[14] = Clearance in male RH:Foxn1 nude rat; format: ADME; conditions: in vivo
[15] = Clearance in female NMRI-nu/nu mouse; format: ADME; conditions: in vivo
[16] = Intermediate elimination half life in female NMRI-nu/nu mouse; format: ADME; conditions: in vivo, read-out: beta t1/2 (converted)
[17] = Intermediate elimination half life in male RH:Foxn1 nude rat; format: ADME; conditions: in vivo, read-out: beta t1/2 (converted)
[18] = Oral bioavailability in female NMRI-nu/nu mouse; format: ADME, organism-based; conditions: in vivo
[19] = Oral bioavailability in male RH:Foxn1 nude rat; format: ADME, organism-based; conditions: in vivo
[20] = Antitumor activity against human Lu7462 patient-derived NSCLC cells xenografted in female NMRI-nu/nu mouse assessed as T/C ratio at 200 mg/kg, po, qd for 94 days; format: functional; conditions: time 94 day
[21] = system: A2780; assay: Antiproliferative activity against human A2780 cells; format: functional
[22] = system: SK-OV-3; assay: Antiproliferative activity against human SK-OV-3 cells; format: functional
[23] = system: PC-3; assay: Antiproliferative activity against human PC-3 cells; format: functional
[24] = system: MOLM-13; assay: Antiproliferative activity against human MOLM-13 cells; format: functional
[25] = target: T2, MAP kinase-interacting serine/threonine-protein kinase 1; assay: Inhibition of Mnk1 (unknown origin) using eIF4E-derived (D 202 TATKSGSTTKNR 214) peptide as substrate incubated for 90 mins by IMAP TR-FRET assay
[26] = target: T1, MAP kinase-interacting serine/threonine-protein kinase 2; assay: Inhibition of His-tagged Mnk2 (unknown origin) using eIF4E-derived (D 202 TATKSGSTTKNR 214) peptide as substrate incubated for 90 mins by IMAP TR-FRET assay
Target sequence in this assay (Q9HBH9 whole entry): as the sequence (Q9HBH9 whole entry, looked up) above

[27] = target: T2, MAP kinase-interacting serine/threonine-protein kinase 1; assay: Inhibition of Mnk1 (unknown origin) by ADP-Glo assay
[28] = target: T1, MAP kinase-interacting serine/threonine-protein kinase 2; assay: Inhibition of Mnk2 (unknown origin) by ADP-Glo assay
Target sequence in this assay (Q9HBH9 whole entry): as the sequence (Q9HBH9 whole entry, looked up) above

[29] = target: Tyrosine-protein kinase BTK (Homo sapiens, UniProt Q06187); assay: Inhibition of FLAG-tagged BTK (unknown origin) transfected into HEK293T cells incubated for 30 mins followed by ATP addition measured after 20 mins by Western blotting analysis; format: cell-based, HEK293
[30] = target: T2, MAP kinase-interacting serine/threonine-protein kinase 1; assay: Inhibition of FLAG-tagged Mnk1 (unknown origin) transfected into HEK293 cells incubated for 30 mins followed by ATP addition measured after 30 mins by Western blotting analysis; format: cell-based
[31] = target: T1, MAP kinase-interacting serine/threonine-protein kinase 2; assay: Inhibition of FLAG-tagged Mnk2 (unknown origin) transfected into HEK293 cells incubated for 30 mins followed by ATP addition measured after 30 mins by Western blotting analysis; format: cell-based
Target sequence in this assay (Q9HBH9 whole entry): as the sequence (Q9HBH9 whole entry, looked up) above

[32] = target: T3, Tyrosine-protein kinase JAK3 (Homo sapiens, UniProt P52333); assay: Inhibition of JAK3 (unknown origin)
T3 sequence (P52333 whole entry): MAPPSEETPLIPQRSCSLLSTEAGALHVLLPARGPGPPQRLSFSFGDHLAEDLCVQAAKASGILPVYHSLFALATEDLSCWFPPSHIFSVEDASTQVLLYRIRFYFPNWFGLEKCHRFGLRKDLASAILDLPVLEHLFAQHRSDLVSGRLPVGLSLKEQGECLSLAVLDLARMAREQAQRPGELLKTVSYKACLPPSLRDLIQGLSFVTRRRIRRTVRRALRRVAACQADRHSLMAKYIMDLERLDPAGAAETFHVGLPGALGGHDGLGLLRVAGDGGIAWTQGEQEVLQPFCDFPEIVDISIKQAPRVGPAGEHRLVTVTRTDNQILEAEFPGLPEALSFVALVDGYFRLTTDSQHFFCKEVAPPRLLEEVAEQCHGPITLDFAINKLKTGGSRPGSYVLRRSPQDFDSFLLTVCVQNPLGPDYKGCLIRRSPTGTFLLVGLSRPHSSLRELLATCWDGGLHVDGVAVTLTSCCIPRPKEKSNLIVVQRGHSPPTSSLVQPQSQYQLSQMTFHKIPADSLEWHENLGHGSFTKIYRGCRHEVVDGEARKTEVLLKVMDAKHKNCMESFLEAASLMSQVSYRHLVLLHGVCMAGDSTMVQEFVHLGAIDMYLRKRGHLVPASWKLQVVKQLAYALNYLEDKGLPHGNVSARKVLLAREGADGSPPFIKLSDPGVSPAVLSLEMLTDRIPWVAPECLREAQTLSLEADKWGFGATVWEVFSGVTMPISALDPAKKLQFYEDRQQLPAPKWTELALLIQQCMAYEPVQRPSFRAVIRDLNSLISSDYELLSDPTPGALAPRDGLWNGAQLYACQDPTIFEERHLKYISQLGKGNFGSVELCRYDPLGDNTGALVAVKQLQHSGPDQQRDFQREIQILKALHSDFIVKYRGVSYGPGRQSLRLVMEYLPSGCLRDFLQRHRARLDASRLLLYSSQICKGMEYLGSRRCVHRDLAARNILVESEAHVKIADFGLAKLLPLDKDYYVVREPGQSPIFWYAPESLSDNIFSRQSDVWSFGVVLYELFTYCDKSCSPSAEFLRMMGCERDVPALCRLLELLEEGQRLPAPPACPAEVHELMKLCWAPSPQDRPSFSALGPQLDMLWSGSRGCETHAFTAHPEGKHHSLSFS

T2 sequence (Q9BUB5 whole entry): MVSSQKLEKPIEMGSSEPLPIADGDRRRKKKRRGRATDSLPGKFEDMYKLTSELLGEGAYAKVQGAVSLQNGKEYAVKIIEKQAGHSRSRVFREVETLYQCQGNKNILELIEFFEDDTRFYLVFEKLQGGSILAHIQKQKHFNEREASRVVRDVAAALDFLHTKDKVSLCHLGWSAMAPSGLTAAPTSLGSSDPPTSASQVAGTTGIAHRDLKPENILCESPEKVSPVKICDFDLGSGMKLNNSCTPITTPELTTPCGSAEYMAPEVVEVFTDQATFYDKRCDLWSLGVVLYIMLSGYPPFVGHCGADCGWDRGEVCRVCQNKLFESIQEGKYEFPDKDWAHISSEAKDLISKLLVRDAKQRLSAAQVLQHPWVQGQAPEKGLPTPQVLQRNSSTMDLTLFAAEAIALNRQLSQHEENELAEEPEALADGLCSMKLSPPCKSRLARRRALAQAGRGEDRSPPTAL
Tyrosine-protein kinase BTK, sequence (Q06187 whole entry): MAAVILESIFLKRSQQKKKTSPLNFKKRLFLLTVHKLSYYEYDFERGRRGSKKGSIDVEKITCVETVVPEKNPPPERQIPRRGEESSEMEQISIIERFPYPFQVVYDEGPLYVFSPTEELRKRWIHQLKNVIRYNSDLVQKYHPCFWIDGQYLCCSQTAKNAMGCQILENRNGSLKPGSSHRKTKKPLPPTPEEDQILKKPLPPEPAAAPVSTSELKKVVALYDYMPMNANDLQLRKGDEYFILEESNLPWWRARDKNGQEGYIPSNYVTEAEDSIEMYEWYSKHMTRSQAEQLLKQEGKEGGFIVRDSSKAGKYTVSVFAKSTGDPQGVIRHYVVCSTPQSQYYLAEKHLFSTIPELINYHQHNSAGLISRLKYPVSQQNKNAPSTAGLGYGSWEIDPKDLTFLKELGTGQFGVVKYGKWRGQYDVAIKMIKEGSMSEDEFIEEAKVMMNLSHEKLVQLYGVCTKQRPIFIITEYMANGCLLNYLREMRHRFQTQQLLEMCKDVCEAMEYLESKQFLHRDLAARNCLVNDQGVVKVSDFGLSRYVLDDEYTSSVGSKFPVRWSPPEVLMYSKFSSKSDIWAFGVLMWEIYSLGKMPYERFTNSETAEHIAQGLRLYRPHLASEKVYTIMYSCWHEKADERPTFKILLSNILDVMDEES

inhibition [1]: 32%
Structure (SMILES): Cc1ccc(C(=O)Nc2ccc(CN3CCN(C)CC3)c(C(F)(F)F)c2)cc1C#Cc1cnc2cccnn12

IC50 [2]: 18 nM
Structure (SMILES): O=S1(=Nc2cc(Cl)c3c(Nc4ccc(F)cc4O[C@H]4COC[C@@H]4O)ncnc3c2)CCC1

Structure (SMILES): Cn1ccc2ncnc(Nc3ccc(F)cc3OC(CF)CF)c21
IC50 [3]: 50.1 nM
IC50 ([2]; read-out: pIC50 (converted)): 158 nM

Structure (SMILES): Cn1ccc2ncnc(Nc3ccc(F)cc3OC3CCCC3)c21
IC50 [3]: 31.6 nM
IC50 ([2]; read-out: pIC50 (converted)): 126 nM

IC50 [4]: 21 nM
Structure (SMILES): CN1CCC(C(=O)Nc2ncc(-c3ccccc3)s2)CC1

Structure (SMILES): Nc1cccc2c1cnn2-c1ncnc2[nH]ccc12
Activity [5]: 92%

Structure (SMILES): CC(C)Oc1cc(F)ccc1Nc1ncnc2cc(C(=O)NCCCN(C)C)n(C)c12
IC50 [3]: 39.8 nM
IC50 ([2]; read-out: pIC50 (converted)): 50.1 nM

Ki [6]: 120 nM
GI50 [7]: 780 nM
Structure (SMILES): Cc1c(-c2ccnc(Nc3ccccc3OC(F)F)n2)sc(=O)n1C
GI50 [8]: 880 nM

IC50 [2]: 329 nM
Structure (SMILES): COc1cc(N=S(C)(=O)C(C)(C)C)cc2ncnc(Nc3ccc(F)cc3O[C@H]3COC[C@H]3O)c12 (stereo partly drawn)

GI50 [9]: 4.64 µM
Ki [10]: 740 nM
Ki [11]: 1320 nM
Structure (SMILES): COc1ncc(C)cc1Nc1ncnc2[nH]ccc12

IC50 [2]: 80 nM
Structure (SMILES): CO[C@@H]1COC[C@@H]1Oc1cc(F)ccc1Nc1ncnc2cc(N=S(C)(C)=O)cc(C)c12

Vd [12]: 0.87 L/kg
Vd [13]: 6 L/kg
clearance [14]: 6.83 mL/min/kg
clearance [15]: 39 mL/min/kg
half-life [16]: 72 min
half-life [17]: 72 min
bioavailability [18]: 71%
bioavailability [19]: 78%
Structure (SMILES): C[C@H](CN)Oc1ccc2ncc(-c3cc4ccccc4o3)n2n1
T/C [20]: 0.33

Structure (SMILES): CC(C)Oc1cc(C#N)ccc1Nc1ncnc2ccn(C)c12
IC50 [3]: 25.1 nM
IC50 ([2]; read-out: pIC50 (converted)): 50.1 nM

Structure (SMILES): CC(C)Oc1cc(F)ccc1Nc1ncnc2cc(C(=O)NCC3CCNCC3)n(C)c12
IC50 [3]: 39.8 nM
IC50 ([2]; read-out: pIC50 (converted)): 39.8 nM

IC50 [3]: 12.6 nM
IC50 ([2]; read-out: pIC50 (converted)): 12.6 nM
Structure (SMILES): CN(C)CCCNC(=O)c1cc2ncnc(N3CCc4cc(F)ccc43)c2n1C

GI50 [21]: < 10 µM
GI50 [22]: < 10 µM
GI50 [23]: < 10 µM
GI50 [24]: < 10 µM
Structure (SMILES): O=C1NC2(CCCCC2)n2c1c(Cl)cc(Nc1ccncn1)c2=O

IC50 [3]: 7.94 nM
IC50 ([2]; read-out: pIC50 (converted)): 10 nM
Structure (SMILES): CN(C)CCCNC(=O)c1nc2c(N3CCc4ccccc43)ncnc2s1

IC50 [3]: 2.51 nM
IC50 ([2]; read-out: pIC50 (converted)): 3.16 nM
Structure (SMILES): CC1(C)CN(c2ncnc3sc(C(=O)NCC4CCNCC4)nc23)c2ccccc21

IC50 [25]: 147 µM
IC50 [26]: 50 µM
Structure (SMILES): Cc1c(C(=O)O)sc2ncnc(Nc3ccc(F)cc3OC(CF)CF)c12

IC50 [3]: 31.6 nM
IC50 ([2]; read-out: pIC50 (converted)): 50.1 nM
Structure (SMILES): CC(C)Oc1cc(F)ccc1Nc1ncnc2sc(C(=O)NCCN3CCNCC3)nc12

GI50 [9]: 8.19 µM
Ki [10]: 1080 nM
Ki [11]: 430 nM
Structure (SMILES): Fc1ccc(Nc2ncnc3[nH]ccc23)nc1

IC50 [3]: 31.6 nM
IC50 ([2]; read-out: pIC50 (converted)): 50.1 nM
Structure (SMILES): CNC(=O)c1nc2c(Nc3ccc(F)cc3OC(C)C)ncnc2s1

IC50 [3]: 50.1 nM
IC50 ([2]; read-out: pIC50 (converted)): 50.1 nM
Structure (SMILES): CC(C)Oc1cc(F)ccc1Nc1ncnc2sc(C(=O)NCC3CCNCC3)nc12

inhibition [1]: 51%
Structure (SMILES): Cc1ncc(C(=O)Nc2ccc(CN3CCN(C)CC3)c(C(F)(F)F)c2)cc1C#Cc1cnc2cccnn12

IC50 [27]: 4.7 µM
IC50 [28]: 2600 nM
Structure (SMILES): CN(Cc1ccon1)Cc1cc(-c2ccnc3cc(Cl)ccc23)ccc1O

IC50 [3]: 3.98 nM
IC50 ([2]; read-out: pIC50 (converted)): 5.01 nM
Structure (SMILES): O=C(NCC1CCNCC1)c1nc2c(N3CCc4cc(F)ccc43)ncnc2s1

IC50 [3]: 2 nM
IC50 ([2]; read-out: pIC50 (converted)): 2.51 nM
Structure (SMILES): CN(C)CCCNC(=O)c1nc2c(N3CCc4cc(F)ccc43)ncnc2s1

Structure (SMILES): Fc1ccc2c(c1)CCN2c1ncnc2cc[nH]c12
IC50 [3]: 31.6 nM
IC50 ([2]; read-out: pIC50 (converted)): 39.8 nM

IC50 [3]: 3.98 nM
IC50 ([2]; read-out: pIC50 (converted)): 6.31 nM
Structure (SMILES): CN(C)CCCNC(=O)c1nc2c(N3CC(C)(C)c4ccccc43)ncnc2s1

IC50 [29]: 9.4 nM
IC50 [30]: 107 nM
IC50 [31]: 26 nM
IC50 [32]: 55.7 nM
Structure (SMILES): C=CC(=O)Nc1cc(-n2c(=O)ccc3cnc4ccc(-c5cn[nH]c5)cc4c32)ccc1C

IC50 [3]: 3.16 nM
IC50 ([2]; read-out: pIC50 (converted)): 3.16 nM
Structure (SMILES): O=C(NCC1CCNCC1)c1nc2c(N3CCc4cc(Cl)ccc43)ncnc2s1

Structure (SMILES): Cn1ccc2ncnc(Nc3ccc(F)cc3O[C@@H]3CCCOC3)c21
IC50 [3]: 31.6 nM
IC50 ([2]; read-out: pIC50 (converted)): 63.1 nM

IC50 [2]: 104 nM
Structure (SMILES): COc1cc(N=S2(=O)CCC2)cc2ncnc(Nc3cccnc3O[C@H]3COC[C@H]3O)c12

IC50 [2]: 45 nM
Structure (SMILES): CO[C@@H]1COC[C@@H]1Oc1cc(F)ccc1Nc1ncnc2cc(N=S3(=O)CCCC3)cc(Cl)c12
